The record followed here is patent US12365668B2, “Aminopyrazine diol compounds as PI3K-y inhibitors” (Incyte Corporation, priority 2018, dated 2025).

Structures are written as SMILES. pIC50: −log10 of the molar value. Bounds are passed on as bounds.

Assay [1] concerns Phosphorylated Ribosomal Protein S6 (RPS6) in THP-1 cells. In words: THP-1 RPS6 ELISA Assay. Conditions: Homo sapiens, serum starved, 2 hours compound, 10 nM MCP-1 for 15 minutes, Phospho-RPS6 ELISA, read-out: PI3Kγ_THP1_RPS6_ELISA IC50. The class given is cell-based, Human. As for the experimental part: Example A. THP-1 RPS6 ELISA Assay
To measure the Phosphorylated Ribosomal Protein S6 (RPS6) in cell lysates, THP-1 cells (Human Acute Monocytic Leukemia) are purchased from ATCC (Manassas, VA) and maintained in RPMI with 10% FBS (Gibco/Life Technologies, Carlsbad, CA). For the assay, THP-1 cells are serum starved overnight in RPMI, then plated in RPMI (2×10^5 cells/well in 90 μL) into 96-well flat-bottom tissue culture treated plates (Corning, Corning, NY), in the presence or absence of a concentration range of test compounds. Covered plates are incubated for 2 hours at 37° C., 5% CO2 then treated with or without 10 nM MCP-1(MYBioSource, San Diego, CA) for 15 minutes at 37° C., 5% CO2. Plates are centrifuged at 1600 RPM and supernatants are removed. Cells are lysed in Lysis Buffer (Cell Signaling, Danvers, MA) with Protease Inhibitor (Calbiochem/EMD, Germany), PMSF (Sigma, St Louis MO), HALTS (Thermo Fisher, Rockford, IL) for 30 min on wet ice. Cell lysates are frozen at −80° C. before testing. The lysates are tested in the Human/Mouse/Rat Phospho-RPS6 ELISA (R&D Systems, Inc. Minn, MN). The plate is measured using a microplate reader (SpectraMax M5—Molecular Devices, LLC Sunnyvale, CA) set to 450 nm with a wavelength correction of 540. IC50 determination is performed by fitting the curve of inhibitor percent inhibition versus the log of the inhibitor concentration using the GraphPad Prism 5.0 software.

Assay [2] has as its target PI3Kδ (p110δ/p85α) Recombinant Human Protein (Homo sapiens (Human), UniProt O00329). In words: PI3Kδ Scintillation Proximity Assay. The class given is biochemical. To be noted: 20 μM PIP2, 2 μM ATP, SPA. From the text:
Example C. PI3Kδ Scintillation Proximity Assay Materials: [γ-^33P]ATP (10 mCi/mL) and Wheat Germ Agglutinin (WGA) YSi SPA Scintillation Beads was purchased from Perkin Elmer (Waltham, MA). Lipid kinase substrate, D-myo-Phosphatidylinositol 4,5-bisphosphate (PtdIns(4,5)P2)D (+)-sn-1,2-di-O-octanoylglyceryl, 3-O-phospho linked (PIP2), CAS 204858-53-7, was purchased from Echelon Biosciences (Salt Lake City, UT). PI3Kδ (p110δ/p85α) Recombinant Human Protein was purchased from Eurofins (St Charles, MO). ATP, MgCl2, DTT, EDTA, MOPS and CHAPS were purchased from Sigma Aldrich (St. Louis, MO). The kinase reaction was conducted in polystyrene 384-well Greiner Bio-one white plate from Thermo Fisher Scientific in a final volume of 25 μL. Inhibitors were first diluted serially in DMSO and added to the plate wells before the addition of other reaction components. The final concentration of DMSO in the assay was 2%. The PI3Kδ assay was carried out at room temperature in 20 mM MOPS, pH 6.7, 10 mM MgCl2, 5 mM DTT and CHAPS 0.03%. Reactions were initiated by the addition of ATP, the final reaction mixture consisted of 20 μM PIP2, 2 μM ATP, 0.5 μCi [γ-^33P] ATP, 3.4 nM PI3Kδ. Reactions were incubated for 120 min and terminated by the addition of 40 μL SPA beads suspended in quench buffer: 163 mM potassium phosphate pH 7.8, 20% glycerol, 25 mM EDTA. The final concentration of SPA beads is 1.0 mg/mL. After the plate sealing, plates were shaken overnight at room temperature and centrifuged at 1500 rpm for 10 min, the radioactivity of the product was determined by scintillation counting on Topcount (PerkinElmer). IC50 determination was performed by fitting the curve of percent of the solvent control activity versus the log of the inhibitor concentration using the GraphPad Prism 6.0 software.
On the technique in general: In a scintillation proximity assay essentially only radioactivity close to the scintillant gives light.

Assay [3] has as its target PI3Kγ (p110γ) Recombinant Human Protein (Homo sapiens (Human), UniProt P48736). The assay is described as follows: PI3K-γ Scintillation Proximity Assay. The class given is biochemical. Conditions: 20 μM PIP2, 2 μM ATP, SPA. An excerpt:
Example B. PI3K-γ Scintillation Proximity Assay Materials: [γ-^33P]ATP (10 mCi/mL) and Wheat Germ Agglutinin (WGA) YSi SPA Scintillation Beads was purchased from Perkin Elmer (Waltham, MA). Lipid kinase substrate, D-myo-Phosphatidylinositol 4,5-bisphosphate (PtdIns(4,5)P2)D (+)-sn-1,2-di-O-octanoylglyceryl, 3-O-phospho linked (PIP2), CAS 204858-53-7, was purchased from Echelon Biosciences (Salt Lake City, UT). PI3Kγ (p110γ) Recombinant Human Protein was purchased from Life technology (Grand Island, NY). ATP, MgCl2, DTT, EDTA, MOPS and CHAPS were purchased from Sigma Aldrich (St. Louis, MO). The kinase reaction was conducted in polystyrene 384-well Greiner Bio-one white plate from Thermo Fisher Scientific in a final volume of 25 μL. Inhibitors were first diluted serially in DMSO and added to the plate wells before the addition of other reaction components. The final concentration of DMSO in the assay was 2%. The PI3Kγ assay was carried out at room temperature in 20 mM MOPS, pH 6.7, 10 mM MgCl2, 5 mM DTT and CHAPS 0.03%. Reactions were initiated by the addition of ATP, the final reaction mixture consisted of 20 μM PIP2, 2 μM ATP, 0.5 μCi [γ-^33P] ATP, 13 nM PI3Kγ. Reactions were incubated for 120 min and terminated by the addition of 40 μL SPA beads suspended in quench buffer: 163 mM potassium phosphate pH 7.8, 20% glycerol, 25 mM EDTA. The final concentration of SPA beads is 1.0 mg/mL. After the plate sealing, plates were shaken overnight at room temperature and centrifuged at 1500 rpm for 10 min, the radioactivity of the product was determined by scintillation counting on Topcount (Perkin-Elmer). IC50 determination was performed by fitting the curve of percent of the solvent control activity versus the log of the inhibitor concentration using the GraphPad Prism 6.0 software.

As a reminder, the pIC50 is the IC50 on a negative log10 scale, so that one unit is a factor of ten.

Chain of PI3Kδ (p110δ/p85α) Recombinant Human Protein (O00329 whole entry): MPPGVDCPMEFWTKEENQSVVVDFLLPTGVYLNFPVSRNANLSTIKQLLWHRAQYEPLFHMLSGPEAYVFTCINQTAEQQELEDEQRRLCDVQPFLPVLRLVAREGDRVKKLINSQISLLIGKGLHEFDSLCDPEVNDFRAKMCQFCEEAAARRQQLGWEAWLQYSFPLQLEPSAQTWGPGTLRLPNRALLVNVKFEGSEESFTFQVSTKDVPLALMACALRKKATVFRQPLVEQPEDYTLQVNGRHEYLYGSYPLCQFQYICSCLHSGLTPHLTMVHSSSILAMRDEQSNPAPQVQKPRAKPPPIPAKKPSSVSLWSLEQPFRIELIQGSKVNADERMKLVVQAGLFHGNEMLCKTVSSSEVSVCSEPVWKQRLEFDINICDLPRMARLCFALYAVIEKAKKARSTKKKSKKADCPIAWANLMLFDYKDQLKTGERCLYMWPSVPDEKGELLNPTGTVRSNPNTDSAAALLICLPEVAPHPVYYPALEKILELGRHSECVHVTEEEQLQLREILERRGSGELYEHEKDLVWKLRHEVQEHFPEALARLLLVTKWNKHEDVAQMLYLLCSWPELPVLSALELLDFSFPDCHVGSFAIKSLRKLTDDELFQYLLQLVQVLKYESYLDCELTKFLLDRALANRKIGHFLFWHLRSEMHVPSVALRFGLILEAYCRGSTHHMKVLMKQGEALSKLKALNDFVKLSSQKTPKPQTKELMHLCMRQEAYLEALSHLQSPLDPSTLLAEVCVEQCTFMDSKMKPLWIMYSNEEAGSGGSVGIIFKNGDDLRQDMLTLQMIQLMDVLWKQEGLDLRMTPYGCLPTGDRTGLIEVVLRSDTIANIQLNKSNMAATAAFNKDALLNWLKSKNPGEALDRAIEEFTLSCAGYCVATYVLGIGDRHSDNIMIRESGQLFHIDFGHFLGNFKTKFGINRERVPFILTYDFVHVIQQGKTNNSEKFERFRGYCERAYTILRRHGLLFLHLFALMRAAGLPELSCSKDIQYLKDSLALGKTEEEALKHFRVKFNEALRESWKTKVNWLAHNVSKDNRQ
Chain of PI3Kδ (p110δ/p85α) Recombinant Human Protein (P27986 whole entry partner): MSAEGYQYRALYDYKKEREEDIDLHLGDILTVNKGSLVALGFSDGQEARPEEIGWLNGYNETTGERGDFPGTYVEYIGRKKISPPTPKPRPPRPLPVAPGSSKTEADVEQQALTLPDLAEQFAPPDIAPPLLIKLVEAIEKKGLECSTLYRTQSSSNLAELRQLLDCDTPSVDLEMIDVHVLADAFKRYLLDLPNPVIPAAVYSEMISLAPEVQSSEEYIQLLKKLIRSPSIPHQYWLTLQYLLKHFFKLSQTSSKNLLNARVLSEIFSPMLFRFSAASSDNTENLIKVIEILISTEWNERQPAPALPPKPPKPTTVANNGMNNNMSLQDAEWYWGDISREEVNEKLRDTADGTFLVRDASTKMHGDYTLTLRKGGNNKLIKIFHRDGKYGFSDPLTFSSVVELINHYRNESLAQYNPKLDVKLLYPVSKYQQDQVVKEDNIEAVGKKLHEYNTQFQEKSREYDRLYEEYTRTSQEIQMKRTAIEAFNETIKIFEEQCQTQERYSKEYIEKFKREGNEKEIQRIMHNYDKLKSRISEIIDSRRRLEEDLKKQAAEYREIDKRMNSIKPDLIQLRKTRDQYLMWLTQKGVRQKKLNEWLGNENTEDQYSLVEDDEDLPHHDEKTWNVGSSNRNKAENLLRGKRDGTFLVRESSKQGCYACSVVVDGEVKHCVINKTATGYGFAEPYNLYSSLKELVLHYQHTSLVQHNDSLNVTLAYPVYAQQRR
Chain of PI3Kγ (p110γ) Recombinant Human Protein (P48736 whole entry): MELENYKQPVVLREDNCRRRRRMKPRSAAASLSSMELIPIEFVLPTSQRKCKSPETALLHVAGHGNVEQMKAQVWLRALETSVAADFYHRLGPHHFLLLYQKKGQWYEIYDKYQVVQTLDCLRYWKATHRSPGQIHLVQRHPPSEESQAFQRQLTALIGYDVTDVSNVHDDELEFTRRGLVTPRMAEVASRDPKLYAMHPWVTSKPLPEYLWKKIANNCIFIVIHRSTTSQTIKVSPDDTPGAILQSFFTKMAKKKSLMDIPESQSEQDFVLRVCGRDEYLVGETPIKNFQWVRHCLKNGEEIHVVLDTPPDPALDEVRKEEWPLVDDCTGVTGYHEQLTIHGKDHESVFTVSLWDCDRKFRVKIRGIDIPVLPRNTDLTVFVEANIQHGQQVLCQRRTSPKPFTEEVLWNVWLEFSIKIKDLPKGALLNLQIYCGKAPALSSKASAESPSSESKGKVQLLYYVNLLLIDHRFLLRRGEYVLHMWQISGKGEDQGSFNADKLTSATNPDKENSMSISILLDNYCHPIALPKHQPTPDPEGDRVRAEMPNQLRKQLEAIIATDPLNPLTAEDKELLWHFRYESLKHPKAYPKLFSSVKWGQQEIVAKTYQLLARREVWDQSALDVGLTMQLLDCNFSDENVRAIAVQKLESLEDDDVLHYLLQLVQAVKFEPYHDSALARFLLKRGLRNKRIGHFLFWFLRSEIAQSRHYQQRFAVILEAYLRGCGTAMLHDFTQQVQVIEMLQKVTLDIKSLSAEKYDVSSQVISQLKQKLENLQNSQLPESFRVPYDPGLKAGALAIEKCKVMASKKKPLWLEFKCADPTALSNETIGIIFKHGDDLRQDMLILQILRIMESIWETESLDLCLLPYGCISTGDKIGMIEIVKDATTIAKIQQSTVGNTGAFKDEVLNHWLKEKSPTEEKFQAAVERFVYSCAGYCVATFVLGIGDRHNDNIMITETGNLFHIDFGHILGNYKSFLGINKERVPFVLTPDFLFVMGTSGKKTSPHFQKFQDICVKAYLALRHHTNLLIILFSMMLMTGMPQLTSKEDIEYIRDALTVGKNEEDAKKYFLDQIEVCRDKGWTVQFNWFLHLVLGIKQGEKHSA

In the case of `[2H]C([2H])([2H])c1ccc(C(O)(C(C)O)C(F)(F)F)cc1-c1cnc(N)c(C(=O)NC2CCOCC2)n1` (single isomer, unassigned) [Example 19, 3-Amino-6-(2-(methyl-d3)-5-(1,1,1-trifluoro-2,3-dihydroxybutan-2-yl)phenyl)-N-(tetrahydro-2H-pyran-4-yl)pyrazine-2-carboxamide], in assay [1], the pIC50 is 6.30 to 7.00.
Consider `Cc1ccc(C(O)(CO)C(F)(F)F)cc1-c1cnc(N)c(C2CC(C(=O)N3CC(O)C3)C2)n1` (single isomer, unassigned) [Example 24, (3-(3-Amino-6-(2-methyl-5-(1,1,1-trifluoro-2,3-dihydroxypropan-2-yl)phenyl)pyrazin-2-yl)cyclobutyl)(3-hydroxyazetidin-1-yl)methanone], for which the pIC50 in assay [1] was 6.30 to 7.00.
On to `Cc1ccc([C@](O)(CO)C(F)F)cc1-c1cnc(N)c(C(=O)N[C@@H](C)CO)n1` (single isomer, unassigned) [Example 43], for which the pIC50 in assay [1] and in assay [2] was 6.30 to 7.00 each time.
For the molecule `Cc1ccc(C(O)(CO)C(F)(F)F)cc1-c1cnc(N)c(-c2cnn(C)c2)n1` (centres unmarked) [Example 2, 2-(3-(5-Amino-6-(1-methyl-1H-pyrazol-4-yl)pyrazin-2-yl)-4-methylphenyl)-3,3,3-trifluoropropane-1,2-diol], the negative logarithm of the IC50 (pIC50) in assay [2] and in assay [3] was at least 7.00 each time.
As for `Cc1ccc(C(O)(CO)C(F)(F)F)cc1-c1cnc(N)c(-c2cn[nH]c2)n1` (centres unmarked) [Example 3, 2-(3-(5-Amino-6-(1H-pyrazol-4-yl)pyrazin-2-yl)-4-methylphenyl)-3,3,3-trifluoropropane-1,2-diol], the negative logarithm of the IC50 (pIC50) in assay [2] and in assay [3] was at least 7.00 each time.
In the case of `Cc1cc(-c2nc(-c3cc(C(O)(CO)C(F)(F)F)ccc3C)cnc2N)on1` (centres unmarked) [Example 4, 2-(3-(5-Amino-6-(3-methylisoxazol-5-yl)pyrazin-2-yl)-4-methylphenyl)-3,3,3-trifluoropropane-1,2-diol], the pIC50 in assay [2] and in assay [3] was at least 7.00 in each case.
With `Cc1ccc(C(O)(CO)C(F)(F)F)cc1-c1cnc(N)c(-c2cnsc2)n1` (centres unmarked) [Example 5, 2-(3-(5-Amino-6-(isothiazol-4-yl)pyrazin-2-yl)-4-methylphenyl)-3,3,3-trifluoropropane-1,2-diol], the pIC50 in assay [2] and in assay [3] was at least 7.00 each time.
Regarding `Cc1ccc(C(O)(CO)C(F)(F)F)cc1-c1cnc(N)c(-c2ccns2)n1` (centres unmarked) [Example 6, 2-(3-(5-Amino-6-(isothiazol-5-yl)pyrazin-2-yl)-4-methylphenyl)-3,3,3-trifluoropropane-1,2-diol], the pIC50 in assay [2] and in assay [3] was at least 7.00 each time.
For `Cc1cc(-c2nc(-c3cc(C(O)(CO)C(F)(F)F)ccc3C)cnc2N)sn1` (centres unmarked) [Example 7, 2-(3-(5-amino-6-(3-methylisothiazol-5-yl)pyrazin-2-yl)-4-methylphenyl)-3,3,3-trifluoropropane-1,2-diol], the pIC50 in assay [2] and in assay [3] was at least 7.00 in each case.
On to `Cc1ncc(-c2nc(-c3cc(C(O)(CO)C(F)(F)F)ccc3C)cnc2N)s1` (centres unmarked) [Example 10, 2-(3-(5-Amino-6-(2-methylthiazol-5-yl)pyrazin-2-yl)-4-methvlphenyl)-3,3,3-trifluoropropane-1,2-diol], for which the pIC50 in assay [2] and in assay [3] was at least 7.00 in each case.
Consider `Cc1ccc(C(O)(CO)C(F)(F)F)cc1-c1cnc(N)c(-c2cnco2)n1` (centres unmarked) [Example 11, 2-(3-(5-Amino-6-(oxazol-5-yl)pyrazin-2-yl)-4-methylphenyl)-3,3,3-trifluoropropane-1,2-diol], for which the pIC50 in assay [2] and in assay [3] was at least 7.00 in each case.
On to `Cc1ccc(C(O)(CO)C(F)(F)F)cc1-c1cnc(N)c(-n2ccnn2)n1` (centres unmarked) [Example 13, 2-(3-(5-Amino-6-(1H-1,2,3-triazol-1-yl)pyrazin-2-yl)-4-methylphenyl)-3,3,3-trifluoropropane-1,2-diol], for which the pIC50 in assay [2] and in assay [3] was at least 7.00 each time.
`[2H]C([2H])([2H])c1ccc(C(O)(C(O)C(F)(F)F)C(F)(F)F)cc1-c1cnc(N)c(-c2c[nH]nc2C)n1` (centres unmarked) [Example 20, 2-(3-(5-Amino-6-(3-methyl-1H-pyrazol-4-yl)pyrazin-2-yl)-4-(methyl-d3)phenyl)-1,1,1,4,4,4-hexafluorobutane-2,3-diol]: the pIC50 in assay [2] is 6.30 to 7.00.
Regarding `Cc1ccc(C(O)(C(C)(C)O)C(F)(F)F)cc1-c1cnc(N)c(C(=O)NC2CCOCC2)n1` (centres unmarked) [Example 22, 3-Amino-6-(2-methyl-5-(1,1,1-trifluoro-2,3-dihydroxy-3-methylbutan-2-yl)phenyl)-N-(tetrahydro-2H-pyran-4-yl)pyrazine-2-carboxamide], the pIC50 in assay [2] is 6.30 to 7.00.
With `[2H]C([2H])([2H])c1ccc([C@](O)(CO)C(F)(F)F)cc1-c1cnc(N)c(C(=O)N[C@H](C)CO)n1` [Example 36, 3-Amino-N-((R)-1-hydroxypropan-2-yl)-6-(2-(methyl-d3)-5-((S)-1,1,1-trifluoro-2,3-dihydroxypropan-2-yl)phenyl)pyrazine-2-carboxamide], the pIC50 in assay [1] was 6.30 to 7.00.
With `[2H]C([2H])([2H])c1ccc([C@](O)(CO)C(F)F)cc1-c1cnc(N)c(C(=O)N[C@H]2CCCC[C@@H]2O)n1` [Example 38, 3-Amino-6-(5-((S)-1,1-difluoro-2,3-dihydroxypropan-2-yl)-2-(methyl-d3)phenyl)-N-((1S,2S)-2-hydroxycyclohexyl)pyrazine-2-carboxamide], the pIC50 in assay [1] is 6.30 to 7.00.
On to `[2H]C([2H])([2H])c1ccc([C@](O)(CO)C(F)F)cc1-c1cnc(N)c(C(=O)N[C@@H]2CCCC[C@H]2O)n1` [Example 39, 3-Amino-6-(5-((S)-1,1-difluoro-2,3-dihydroxypropan-2-yl)-2-(methyl-d3)phenyl)-N-((1R,2R)-2-hydroxycyclohexyl)pyrazine-2-carboxamide], for which the pIC50 in assay [1] was 6.30 to 7.00.
Consider `Cc1ccc([C@](O)(CO)C(F)F)cc1-c1cnc(N)c(C(=O)NC(C)C)n1` [Example 46, (S)-3-Amino-6-(5-(1,1-difluoro-2,3-dihydroxypropan-2-yl)-2-methylphenyl)-N-isopropylpyrazine-2-carboxamide], for which the pIC50 in assay [2] and in assay [3] was at least 7.00 throughout.
